The text below walks through data of patent US9713613B2, “Methods and compositions for the treatment of cancer and related hyperproliferative disorders” (priority 2007, dated 2017).

In test [1] the test system is endogenous SREBPs. Kind of test: Luciferase reporter assay (pSRE-Luc, normalized by β-gal) in HEK293 cells. It is filed as cell-based, human. Set-up: Luc/Gal: dose or concentration left out as unconfirmed. The method, then: On day 0, HEK293 cells were plated out in triplicate at a density of 5×10^3/well onto a 96-well plate in a Dulbecco's modified Eagle's medium with 10% fetal bovine serum, 100 units/mL penicillin, and 100 μg/mL streptomycin sulfate. On day 2, the cells were transiently co-transfected with the following plasmids by using Lipofectamine reagent (Invitrogen): 0.4 μg/well pSRE-Luc (an SRE-1-driven luciferase reporter construct; Hua et al., 1995 J Biol Chem 270, 29422-7), and 0.1 μg/well a b-gal reporter in which the expression of β-gal is controlled by an actin promoter in a final volume of […]. After incubation for 5 hrs at 37° C., the cells were washed with phosphate-buffered saline and then incubated in 100 μl of Dulbecco's modified Eagle's medium with 10% lipid-depleted serum, […] penicillin, and 100 μg/mL streptomycin sulfate in the absence or presence of fatostatin A. After 20 hrs of incubation, the cells in each well were lysed with 20 μL of 1× Reporter Lysis Buffer (Promega), and aliquots were used for measurement of luciferase (10 μL) and β-galactosidase (10 μL) activities. For luciferase assay, photon production was detected as counts per second in a Wallac 1420 ARVOsx multilabel counter (PerkinElmer). For β-galactosidase assays, hydrolysis of O-nitrophenyl-β-D-galactosidase was measured after incubation for 0.5 h at 37° C. by a microplate reader at the wave length of 405 nm (Tecan). The luciferase activity (counts per second) was normalized by the activity of β-galactosidase (OD units). For overexpression of the N-terminal matured form of SREBP-1c, pCMV-SREBP-1c (1-436) was co-transfected with pSRE-Luc. pSRE-Luc and pCMV-SREBP-1c (1-436) were provided by J. L. Goldstein (University of Texas Southwestern Medical Center). […]

The subject of another test is 3T3-L1 cells. Kind of test: adipogenesis assay (formation of oil droplets). It is filed as cell-based, mouse. Details: key: +: The analogues that completely inhibited the formation of oil droplets in cells were scored to be adipogenesis-inhibiting analogues. The settings on record: formation of oil droplets in cells. The method, then: The adipogenesis assay was performed as described (Choi et al., 2003).

Another test deals with MOLT-4 cells. Kind of test: MOLT-4 cell growth, MTT assay. Type of test: cell-based, human. The settings on record: 48 hours. The method, then:
10,000 MOLT-4 cells (FIGS. 35A-35C) and 20,000 RPM18226 cells (FIGS. 35D-35F) were seeded onto 96 well plate in RPMI 1640 medium containing 5% FBS or fat-free charcoal treated serum (FF-FBS) for 24 hours at 37 C. MOLT-4 and RPM18226 cells were treated for additional 48 hours with different concentrations of compound 19 (None control without DMSO, Vehicle with DMSO, 1, 2, 5, 10 and 20 μM in DMSO; RPM18226 cells also were treated with 3 μM in DMSO). At the end of 48 hours cells were subjected to MTT assay to determine viability. Values are depicted as means±SD; *P<0.05.
20,000 MOLT-4 cells (FIGS. 36A-36C) and 20,000 RPM18226 cells (FIGS. 36D-36F) cells were seeded onto 96 well plates in RPMI 1640 Medium containing 5% Fetal bovine serum (FBS) or 5% fat free charcoal treated serum (FF-FBS) for 24 hours at 37 C. Cells then were treated for additional 48 hours with different concentrations of compound 17 (None control without DMSO, Vehicle with DMSO, 1, 2, 3, 5, 10 and 20 μM in DMSO). At the end of the 48 hours treatment cells were subjected to MTT assay to determine viability. Values are depicted as means±SD (n=3); **P<0.001; ***P<0.0001.
MOLT-4 cells were grown at two different conditions under 5% fetal bovine serum (FBS) and under 5% FBS fat free serum (charcoal treated serum). 10,000 Cells were seeded a 96 well plate for 24 hours before starting the treatment with different concentrations of compound 19. Compound 19 dissolved in DMSO was added to cells for 48 hours before determining cell growth using MTT assay. […] Compound 19 inhibited cell growth about 75-80% at 10 and 20 μM under both growth conditions.
MOLT-4 cells were grown at two different conditions under 5% fetal bovine serum (FBS) and under 5% FBS fat free serum (charcoal treated serum). 20,000 cells were seeded into a 96 well plate for 24 hours before starting the treatment with different concentrations of compound 17. Compound 17 dissolved in DMSO was added to cells for 48 hours before determining cell growth using MTT assay. […] Compound 17 inhibited cell growth about 85-100% at 5, 10 and 20 μM under both growth conditions. Under both 5% FBS and 5% FBS fat free sera there was a strong trend of inhibition starting at 1 μM (FIGS. 36B-36C).
A general note: Tetrazolium dyes change colour on reduction, which living cells bring about.

The test system of test [2] is endogenous SREBPs. Kind of test: SREBP activation assay (pSRE-Luc luciferase reporter) in CHO-K1 cells. Type of test: cell-based, Chinese hamster. The settings on record: Cricetulus griseus, CHO-K1; 5 μM in CHOK1 cells. The method, then:
To confirm that fatostatin impairs the function of SREBPs, the ability of endogenous SREBPs to activate transcription of an SREBP-responsive reporter gene was measured in CHO-K1 cells in the presence or absence of fatostatin (FIG. 18A).
Luciferase reporter assay. On day 0, CHO-K1 cells were plated out onto a 96-well plate in medium A (a 1:1 mixture of Ham's F-12 medium and Dulbecco's modified Eagle's medium, with 5% fetal bovine serum, 100 units/mL penicillin, and 100 μg/mL streptomycin sulfate). On day 2, the cells were transiently co-transfected with pSRE-Luc (an SRE-1-driven luciferase reporter construct) (Hua et al., 1995) and pAc-β-gal (β-gal reporter in which the expression of β-gal is controlled by an actin promoter), using Lipofectamine reagent (Invitrogen). After incubation for 5 h, the cells were washed with phosphate-buffered saline (PBS), and then incubated, in the absence or presence of fatostatin, in medium B (a 1:1 mixture of Ham's F-12 medium and Dulbecco's modified Eagle's medium, with 5% lipid-depleted serum, 100 units/mL penicillin, 100 μg/mL streptomycin sulfate, […], and 50 mM sodium mevalonate). After 20 h of incubation, the cells in each well were lysed, and aliquots were used to measure luciferase and β-galactosidase activities. Luciferase activity was normalized by the activity of β-galactosidase. For overexpression of the N-terminal matured form of SREBP-1c, pCMV-SREBP-1c(1-436) was co-transfected with pSRE-Luc and pAc-β-gal.
Standard SREBP activation assays were performed on the exemplary compounds identified in Table 4 as per the method for Fatostatin A in Example 1. The ability of endogenous SREBPs to activate transcription of an SREBP-responsive reporter gene was measured in the presence or absence of compounds 45-55 and 19 (FIG. 28), compounds 56-61 and 19 (FIG. 29) and compounds 62-66 (FIG. 30) at 5 μM in CHOK1 cells. […] The inhibitory concentrations of compounds 53 (FIG. 31) and compounds 58 and 61 (FIG. 32) were determined.
On the technique in general: A reporter such as luciferase makes a cellular process visible.

[3] abbreviates: entries 1, 19-34 (FIG. 16), None = 15.0759.

In the test on endogenous SREBPs [1] (entries 1-18 (FIG. 15), none = 9.4426), `CCCc1cc(-c2nc(-c3ccc(NC(C)C)cc3)cs2)ccn1` [Compound 17, N-isopropyl-4-(2-(2-propylpyridin-4-yl)thiazol-4-yl)benzenamine] came in with a Luc/Gal of 4.7079. Besides, the Inhibition of adipogenesis entry in the test on 3T3-L1 cells was “+”. In addition, the “inhibition under 5% FF FBS relative to 5% FBS” value in the test with MOLT-4 cells (3 μM) is reported as “about 2.5 times”. The “inhibition of cell growth” value in the test with MOLT-4 cells (5, 10 and 20 μM, both growth conditions) is recorded as 85-100%.

Compound `CCCc1cc(-c2nc(-c3ccc(NCc4ccccc4)cc3)cs2)ccn1` [Compound 20, N-benzyl-4-(2-(2-propylpyridin-4-yl)thiazol-4-yl)benzenamine] registered a Luc/Gal in the test with endogenous SREBPs [1] (setting [3]) of 5.6748. Further, in the test on 3T3-L1 cells, the Inhibition of adipogenesis entry was “+”.

For `CCCc1cc(-c2nc(-c3ccc(NCC4CC4)cc3)cs2)ccn1` [Compound 21, N-(cyclopropylmethyl)-4-(2-(2-propylpyridin-4-yl)thiazol-4-yl)benzenamine], the Luc/Gal with endogenous SREBPs [1] (setting [3]) stood at 6.4378. Besides, the Inhibition of adipogenesis result in the test with 3T3-L1 cells is given as “+”.

In the test on endogenous SREBPs [1] (setting [3]), `CCCc1cc(-c2nc(-c3ccc(Br)cc3)c(C(=O)OC)s2)ccn1` [Compound 23, methyl 4-(4-bromophenyl)-2-(2-propylpyridin-4-yl)thiazole-5-carboxylate] came in with a Luc/Gal of 8.1137. In the test with 3T3-L1 cells, the Inhibition of adipogenesis result was “+”.

Turning to `CCCc1cc(-c2nc(-c3ccccc3OC)cs2)ccn1` [Compound 26, 4-(4-(2-methoxyphenyl)thiazol-2-yl)-2-propylpyridine], in the test with endogenous SREBPs [1] (setting [3]), the Luc/Gal worked out at 8.3046. Also, the Inhibition of adipogenesis result with 3T3-L1 cells is “+”.

In turn, `CCCc1cc(-c2nc(-c3cccs3)cs2)ccn1` [Compound 34, 2-propyl-4-(4-(thiophen-2-yl)thiazol-2-yl)pyridine] registered a Luc/Gal in the test with endogenous SREBPs [1] (setting [3]) of 12.1593. In addition, the Inhibition of adipogenesis entry with 3T3-L1 cells is recorded as “+”.

Take `CCCc1cc(-c2ccc(-c3ccc(C)cc3)cc2)ccn1` [Compound 35]: in the test on endogenous SREBPs [1] (entries 1, 35-39 (FIG. 17), None = 18), the Luc/Gal is listed as 11.36. In addition, in the test on 3T3-L1 cells, the Inhibition of adipogenesis entry is “+”.

Consider `CS(=O)(=O)Nc1ccc(-c2csc([C@H]3CCCN3C(=O)OCc3ccccc3)n2)cc1` [Compound 53, benzyl (R)-2-(4-(4-(methylsulfonamido)phenyl)thiazol-2-yl)pyrrolidine-1-carboxylate], for which, in the test with endogenous SREBPs [2], the inhibition – broadly, how much of the control response was suppressed – at 5 µM is about 30%.

As for `Cc1ccc(S(=O)(=O)Nc2ccc(C(=O)N3CCN(c4cc(Cl)ccc4C)CC3)cc2)cc1` [Compound 58, (4-(5-chloro-2-methylphenyl)piperazin-1-yl)(4-(tosylamino)phenyl)methanone], the inhibition at 5 µM with endogenous SREBPs [2] was about 42%.

In the test with endogenous SREBPs [2], `Cc1ccc(-c2csc(/C(C#N)=C\Cc3ccc(S(=O)(=O)Nc4nccs4)cc3)n2)c(C)c1` [Compound 61, (Z)-4-(3-cyano-3-(4-(2,4-dimethylphenyl)thiazol-2-yl)allyl)-N-(thiazol-2-yl)benzenesulfonamide] gave an inhibition at 5 µM of about 25%.
